Data from the METLIN SMRT retention time set (Domingo-Almenara et al. 2019).

Experiment: gradient 5% acetonitrile 3 min, to 50% in 2 min, to 85% in 15 min, held 3 min, 100 µL/min
Details: column: Zorbax Extend-C18 2.1 x 50 mm; eluents: water / acetonitrile, 0.1% formic acid
In short: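 Mixtures of ~100 pure standards were chromatographed on a Zorbax Extend-C18 column (2.1 × 50 mm, 1.8 μm) at 100 μL/min using water and acetonitrile, each with 0.1% formic acid. Detection used a quadrupole time-of-flight mass spectrometer in positive and negative ionization mode, and data collection spanned 3 months. Retention time was obtained from adduct peaks picked computationally and each checked manually.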

Row | SMILES | RP-LC retention time
1 | Cc1cc(NC(=O)Nc2ccc3c(c2)CCN3S(C)(=O)=O)ccc1Br | 943 s
2 | C=CCN1C(=O)COc2ccc(-c3csc(NC(=O)CCC)n3)cc21 | 894 s
3 | CC(C)c1cc(C(=O)N2Cc3ccc(CN4CCN(C)CC4)cc3C2)c(O)cc1O | 654 s
4 | COc1ccc(NC(=O)Cn2nc3cc(C)nc(-c4ccccc4)n3c2=O)cc1OC | 736 s
5 | Cc1cc2nc(N3CCOCC3)n(CC(=O)Nc3cc(F)cc(F)c3)c(=O)c2n1C | 677 s
6 | Cc1cc(C(=O)Nc2nnc(Cc3ccc4c(c3)OCO4)o2)c(C)o1 | 722 s
7 | CC(C)n1cnc2ccc(-c3noc(CSc4ccncc4)n3)cc21 | 565 s
8 | Cc1ccsc1C(=O)Nc1ccccc1SCc1nnc(-c2ccccc2)o1 | 1080 s
9 | O=S(=O)(NC1CCCCCC1)c1ccc(-c2nnc(C3CC3)o2)o1 | 920 s
10 | Cc1cccc(Sc2nccnc2N2CCC(C(=O)NCCC3=CCCCC3)CC2)c1 | 1220 s
11 | CC(C)CCNC(=O)CN1C(=O)C2CCCCN2c2ccc(S(=O)(=O)N3CCCC3)cc21 (stereo not given) | 940 s
12 | COc1ccccc1N1CCN(Cc2nc(-c3ccc(N4CCOCC4)nc3)no2)CC1 | 694 s
13 | O=C(NCCn1nnc2cc(C(=O)N3CCCC3)ccc21)Nc1ccc(Br)cc1 | 704 s
14 | COC(=O)CNC(=O)C1CN(C(=O)c2ccccc2)CC12CCCCC2 (stereo not given) | 731 s
15 | COc1ccc(OC)c(Nc2nc(N(C)C)nc3c2cnn3-c2ccccc2)c1 | 1380 s
16 | Cc1noc(C)c1CNC(=O)c1ccc2ncccc2c1 | 753 s
17 | Cc1nc(-c2csc(S(=O)(=O)N3CCCC(C(=O)Nc4cccc(C)c4C)C3)c2)no1 (stereo not given) | 951 s
18 | CCc1noc([C@@H]2CC(F)(F)CN2C(=O)Cn2ccnc2)n1 | 570 s
19 | O=C(COc1ccccc1)N1CCCC(COc2ccc(C(=O)N3CCCC3)cc2)C1 (stereo not given) | 808 s
20 | COc1cccc(CNC(=O)N2CCN(c3cnn4c(C)nnc4c3)CC2)c1 | 658 s
21 | O=C(NC1CC1)C1CCCN(c2nc3ncn(CC(=O)N4CCc5ccccc5C4)c(=O)c3s2)C1 (stereo not given) | 689 s
22 | CCN(CC)CCNc1ncnc2onc(-c3ccc(F)cc3)c12 | 625 s
23 | CC(C)c1nc(-c2ccc([N+](=O)[O-])cc2)cs1 | 1120 s
24 | Cc1csc(-c2cc(S(=O)(=O)NCCCN3CCc4ccccc4C3)c(C)s2)n1 | 708 s
25 | Cc1ccc(C)c(S(=O)(=O)N2CCc3nc(-c4ccc(F)cc4)ncc3C2)c1 | 1200 s
26 | CCOc1cccc(-c2noc(CN3C(=O)COc4cc(Cl)ccc43)n2)c1 | 1180 s
27 | Cn1c(-c2ccccc2)nn(CCNS(=O)(=O)c2ccc(Cl)s2)c1=O | 748 s
28 | CS(=O)(=O)N1CCC(OC2CCN(C(=O)Nc3cccc(C(F)(F)F)c3)CC2)CC1 | 846 s
29 | CCOc1nn(CC)cc1-c1nnc(SCC(=O)N2CCCc3ccccc32)n1CC | 734 s
30 | CCOc1cc(-c2noc(-c3ncn4c3COC(c3ccc(F)cc3)C4)n2)ccc1OC (stereo not given) | 1040 s

More lines, now with the values ahead:

Row | RP-LC retention time | SMILES
31 | 694 s | Cc1cc(C(=O)N2CCCC(c3nnc(-c4cccs4)o3)C2)no1 (stereo not given)
32 | 1070 s | COc1ccccc1C(=O)NC1(C(F)(F)F)C(=O)N(CC(C)C)C2=C1C(=O)CC(C)(C)C2 (stereo not given)
33 | 1020 s | COC1C(=O)N(c2cccc(F)c2)C12CCN(S(=O)(=O)Cc1ccccc1)CC2 (stereo not given)
34 | 802 s | O=C(NCc1ccc(Cl)cc1)C1CC(=O)N(CCc2c[nH]c3ccc(F)cc23)C1 (stereo not given)
35 | 950 s | O=C(C1CCCN(c2nnc(-n3cccc3)s2)C1)N1CCN(c2ccc(F)cc2)CC1 (stereo not given)
36 | 864 s | O=C(CCCn1c(=O)c2cccn2c2ccc(Br)cc21)NCc1ccco1
37 | 722 s | COCCC(=O)NC1CCN(C2=NS(=O)(=O)C(c3ccc(C)c(C)c3)=C2C)CC1
38 | 617 s | COc1ccc(NC(=O)CSc2ccc(N3CCCC(C(=O)NC4CC4)C3)nn2)cc1 (stereo not given)
39 | 985 s | C=CCN(CC=C)S(=O)(=O)c1ccc(C(=O)N2CCCc3ccccc32)cc1
40 | 711 s | Cc1noc(C)c1CNC(=O)COc1ccc(F)cc1
41 | 565 s | CN(C)c1cc(C(=O)NC2CC2)c2ccccc2n1
42 | 607 s | Cc1cccc(NC(=O)CN2C(=O)C3CCCCN3c3ccc(S(=O)(=O)N(C)C)cc32)c1 (stereo not given)
43 | 1030 s | CCOc1ccccc1NS(=O)(=O)c1cn(CC(C)C)c2ncccc12
44 | 750 s | O=C(NC1CC1)C1c2ccccc2CC(=O)N1Cc1ccccc1 (stereo not given)
45 | 996 s | O=C(c1nnn2c1COC(c1ccc(Cl)cc1)C2)N1CCN(C(=O)C2(c3ccccc3)CC2)CC1 (stereo not given)
